From patent US5763406A, “Method for the treatment of conditions caused by herpes virus infections” (Carlbiotech, Ltd. A/S, priority 1991, dated 1998)

How the values were obtained:
[1] = Systemic or local effects reported by treated patients; assay type: in vivo, human
HSV-1 infection = experiment: Patients' earlier aciclovir treatment of HSV-1 outbreaks (case history); assay type: in vivo, human
Procedure: The patient had experienced similar lesions during the past 18 years, primarily during the winter months. They would usually experience 3-5 outbreaks each winter lasting 10-14 days before complete resolution. One year ago, they applied aciclovir topical to the lesions and on that occasion, resolution occured in 6-8 days.
When the lesions are treated with a 5% aciclovir ointment, topically, resolution is normally achieved within 6-7 days. […] On this occasion, […] denied any recent use of any topical or systemic therapy.
The patient had experienced outbreaks from HSV-1 […]. Five years ago the patient started to use aciclovir topically on a regular basis, but switched to take aciclovir orally 11/2 years ago. Normally the outbreaks would be on the lips, but occasionally the outbreaks would also appear on the neck and on the buccal mucosa. Without any form of medication, complete resolution would happen within 2-3 weeks and complete resolution by using aciclovir orally would happen within 1-2 weeks.

| SMILES | systemic or local effects ([1]; Example 1, 10 mg/ml topical three times daily) | systemic or local effects ([1]; Example 4, 10 mg/ml topical four times in 36 hours) | systemic or local effects ([1]; Example 5, 10 mg/ml topical two times daily) | time to resolution (HSV-1 infection; Example 1 patient, aciclovir topical one year ago) | time to resolution (HSV-1 infection; Example 2 patient, 5% aciclovir ointment, topically) | effect of very early treatment of the lesions (HSV-1 infection; Example 2 patient, aciclovir) | effect from the use of aciclovir (HSV-1 infection; Example 4 patient) | time to complete resolution (HSV-1 infection; Example 5 patient, aciclovir orally) |
| --- | --- | --- | --- | --- | --- | --- | --- | --- |
| C[C@@H](N)C(=O)N[C@@H](CO)C(=O)N[C@H](C(=O)N[C@H](C(=O)N[C@H](C(=O)N[C@@H](CC(N)=O)C(=O)N[C@@H](Cc1ccc(O)cc1)C(=O)N[C@H](C(N)=O)[C@@H](C)O)[C@@H](C)O)[C@@H](C)O)[C@@H](C)O [(D-Ala^1)-Peptide-T Amide, D-Ala-Ser-Thr-Thr-Thr-Asn-Tyr-Thr-NH2] | did not report any systemic or local effects other than those noted above | did not experience any systemic or local effects other than those noted above | did not observe any systemic or local effects other than those noted above | – | – | – | – | – |
| Nc1nc2c(ncn2COCCO)c(=O)[nH]1 [aciclovir] | – | – | – | 6 to 8 days | 6 to 7 days | has not been able to stop the vesicles developing into painful ulcers although the ulcers tend to decrease in size | never experienced any effect | 1-2 weeks |
